Reference: ChEMBL document CHEMBL4052707, “Structure-activity relationships of 3-O-β-chacotriosyl oleanic acid derivatives as entry inhibitors for highly pathogenic H5N1 influenza virus” (Bioorg Med Chem, 2017)
Activity calls are given as the source filed them. The rule behind the calls is not given here.

Experiments:
[1] = Antiviral activity against Influenza A virus (A/Thailand/Kan353/2004(H5N1)) co-expressing NA plasmid infected in 293T cells assessed as inhibition of viral entry incubated for 30 mins followed by addition of cells measured after 48 hrs by luciferase reporter gene assay; format: functional, cell-based; details: HEK-293T
[2] = Cytotoxicity against MDCK cells after 2 days by MTT assay; format: cell-based, Canis lupus familiaris; details: dog
[3] = Selectivity index, ratio of CC50 for MDCK cells to IC50 for Influenza A virus (A/Thailand/Kan353/2004(H5N1); format: toxicity; details: dog, read-out: Ratio CC50/IC50
[4] = tested on: Human immunodeficiency virus 1; assay: Antiviral activity against VSV-g pseudotyped HIV1 infected in 293T cells cotransfected with HA and NA plasmid incubated for 30 mins followed by addition of cells measured after 48 hrs by luciferase reporter gene assay; format: functional, cell-based
[5] = tested on: Influenza A virus; assay: Inhibition of Influenza A virus H5N1 neuraminidase N1 subtype at 20 uM/L after 30 mins by fluorescence assay
[6] = (§1) Binding affinity to Influenza A virus (A/Vietnam/1194/2004(H5N1)) His-tagged hemagglutinin after 250 secs by SPR analysis
[7] = tested on: Influenza A virus (A/Vietnam/1194/2004(H5N1)); assay: as §1
[8] = (§2) Binding affinity to Influenza A virus (A/Viet Nam/1203/2004(H5N1)) Fc-tagged hemagglutinin 2 after 250 secs by SPR analysis
[9] = tested on: Influenza A virus (A/Viet Nam/1203/2004(H5N1)); assay: as §2
[10] = biological target: Peptidyl-prolyl cis-trans isomerase FKBP1A (Homo sapiens) (UniProt P62942); assay: Binding affinity to FKBP12 (unknown origin) after 250 secs by SPR analysis
[11] = tested on: Influenza A virus (A/Puerto Rico/8/1934(H1N1)); assay: Inhibition of Influenza A virus (A/Puerto Rico/8/34(H1N1)) […] hemagglutination of chicken RBC at 20 uM incubated for 1 hr followed by chicken RBC addition measured for 10 mins

Peptidyl-prolyl cis-trans isomerase FKBP1A (Homo sapiens), sequence (P62942 whole entry): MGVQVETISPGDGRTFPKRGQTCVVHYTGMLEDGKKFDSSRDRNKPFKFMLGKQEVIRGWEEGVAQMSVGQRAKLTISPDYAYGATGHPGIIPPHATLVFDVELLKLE

Row | Structure (SMILES) | IC50 [1] | CC50 at 48 h [2] | selectivity ratio [3] | Activity [4] | inhibition [5] | Kd [6] | Activity [7] | Kd [8] | Activity [9] | Activity [10] | inhibition [11]
1 | COC(=O)[C@]12CCC(C)(C)C[C@H]1C1=CC[C@@H]3[C@@]4(C)CC[C@H](O[C@@H]5O[C@H](CO)[C@@H](O)[C@H](O)[C@H]5O[C@@H]5O[C@@H](C)[C@H](O)[C@@H](O)[C@H]5O)C(C)(C)[C@@H]4CC[C@@]3(C)[C@]1(C)CC2 | 16.3 µM | 23.6 µM | 1.4 | – | – | – | – | – | – | – | –
2 | COC(=O)[C@]12CCC(C)(C)C[C@H]1C1=CC[C@@H]3[C@@]4(C)CC[C@H](O[C@@H]5O[C@H](CO)[C@H](O[C@H]6O[C@H](C)[C@@H](O)[C@H](O)[C@@H]6O)[C@H](O)[C@H]5O[C@H]5O[C@H](C)[C@@H](O)[C@H](O)[C@@H]5O)C(C)(C)[C@@H]4CC[C@@]3(C)[C@]1(C)CC2 | 11.1 µM | 45.6 µM | 4.1 | – | – | – | – | – | – | – | –
3 | C[C@@H]1O[C@@H](O[C@H]2[C@H](O[C@@H]3CC[C@]4(C)[C@H]5CC=C6[C@@H]7CC(C)(C)CC[C@]7(C(=O)OCc7ccccc7)CC[C@@]6(C)[C@]5(C)CC[C@H]4C3(C)C)O[C@H](CO)[C@@H](O[C@@H]3O[C@@H](C)[C@H](O)[C@@H](O)[C@H]3O)[C@@H]2O)[C@H](O)[C@H](O)[C@H]1O | 5.88 µM | > 200 µM | > 34 | inactive | inactive | 0.443 µM | Dose-dependent effect | 0.000553 µM | Dose-dependent effect | inactive | –
4 | CC1(C)CC[C@]2(C(=O)OCc3ccccc3)CC[C@]3(C)C(=CC[C@@H]4[C@@]5(C)CC[C@H](O[C@@H]6O[C@H](CO)[C@@H](O[C@@H]7OC[C@@H](O)[C@@H](O)[C@@H]7O)[C@H](O)[C@H]6O[C@@H]6OC[C@@H](O)[C@@H](O)[C@@H]6O)C(C)(C)[C@@H]5CC[C@]43C)[C@@H]2C1 | > 50 µM | 48.2 µM | < 1 | – | – | – | – | – | – | – | –
5 | COC(=O)[C@]12CCC(C)(C)C[C@H]1C1=CC[C@@H]3[C@@]4(C)CC[C@H](O[C@@H]5O[C@H](CO)[C@@H](O)[C@H](O[C@@H]6O[C@@H](C)[C@H](O)[C@@H](O)[C@H]6O)[C@H]5O[C@@H]5O[C@@H](C)[C@H](O)[C@@H](O)[C@H]5O)C(C)(C)[C@@H]4CC[C@@]3(C)[C@]1(C)CC2 | > 50 µM | 22.4 µM | < 1 | – | – | – | – | – | – | – | –
6 | C[C@H]1O[C@H](O[C@@H]2[C@H](O)[C@@H](O[C@H]3O[C@H](C)[C@@H](O)[C@H](O)[C@@H]3O)[C@H](O[C@H]3CC[C@]4(C)[C@H]5CC=C6[C@@H]7CC(C)(C)CC[C@]7(C(=O)OCc7ccccc7)CC[C@@]6(C)[C@]5(C)CC[C@H]4C3(C)C)O[C@@H]2CO)[C@@H](O)[C@@H](O)[C@@H]1O | 9.36 µM | 82.4 µM | 8.8 | – | – | – | – | – | – | – | –
7 | COC(=O)[C@]12CCC(C)(C)C[C@H]1C1=CC[C@@H]3[C@@]4(C)CC[C@@H](O[C@@H]5O[C@H](CO)[C@@H](O[C@@H]6O[C@@H](C)[C@H](O)[C@@H](O)[C@H]6O)[C@H](O)[C@H]5O[C@@H]5O[C@@H](C)[C@H](O)[C@@H](O)[C@H]5O)C(C)(C)[C@@H]4CC[C@@]3(C)[C@]1(C)CC2 | 5.06 µM | > 200 µM | > 40 | – | – | – | – | – | – | – | –
8 | COC(=O)[C@]12CCC(C)(C)C[C@H]1C1=CC[C@@H]3[C@@]4(C)CC[C@H](O[C@@H]5O[C@H](CO)[C@@H](O[C@@H]6O[C@@H](C)[C@H](O)[C@@H](O)[C@H]6O)[C@H](O)[C@H]5O[C@@H]5O[C@@H](C)[C@H](O)[C@@H](O)[C@H]5O)C(C)(C)[C@@H]4CC[C@@]3(C)[C@]1(C)CC2 | 4.74 µM | – | 3.6 | – | – | – | – | – | – | – | –
9 | C[C@H]1O[C@H](O[C@H]2[C@H](O[C@H]3CC[C@]4(C)[C@H]5CC=C6[C@@H]7CC(C)(C)CC[C@]7(C(=O)OCc7ccccc7)CC[C@@]6(C)[C@]5(C)CC[C@H]4C3(C)C)O[C@H](CO)[C@@H](O[C@H]3O[C@H](C)[C@@H](O)[C@H](O)[C@@H]3O)[C@@H]2O)[C@@H](O)[C@@H](O)[C@@H]1O | > 50 µM | 52.4 µM | < 1 | – | – | – | – | – | – | – | –
10 | C[C@@H]1O[C@@H](O[C@H]2[C@H](O[C@H]3CC[C@]4(C)[C@H]5C(=O)C=C6[C@@H]7CC(C)(C)CC[C@]7(C(=O)OCc7ccccc7)CC[C@@]6(C)[C@]5(C)CC[C@H]4C3(C)C)O[C@H](CO)[C@@H](O[C@@H]3O[C@@H](C)[C@H](O)[C@@H](O)[C@H]3O)[C@@H]2O)[C@H](O)[C@H](O)[C@H]1O | 4.05 µM | 92.7 µM | 22.9 | inactive | inactive | 0.0617 µM | Dose-dependent effect | 0.00386 µM | Dose-dependent effect | inactive | inactive
11 | O=C(NCCN1CCCCC1)c1cc(F)cc(C(F)(F)F)c1 | 4.45 µM | – | 332 | – | – | – | – | – | – | – | –
12 | COC(=O)[C@]12CCC(C)(C)C[C@H]1C1=CC[C@@H]3[C@@]4(C)CC[C@H](O[C@@H]5O[C@H](CO)[C@@H](O)[C@H](O[C@@H]6O[C@@H](C)[C@H](O)[C@@H](O)[C@H]6O)[C@H]5O)C(C)(C)[C@@H]4CC[C@@]3(C)[C@]1(C)CC2 | > 50 µM | 25.3 µM | < 1 | – | – | – | – | – | – | – | –
13 | CC1(C)CC[C@]2(C(=O)OCc3ccccc3)CC[C@]3(C)C(=CC[C@@H]4[C@@]5(C)CC[C@H](O[C@@H]6O[C@H](CO)[C@@H](O[C@@H]7OC[C@H](O)[C@H](O)[C@H]7O)[C@H](O)[C@H]6O[C@@H]6OC[C@H](O)[C@H](O)[C@H]6O)C(C)(C)[C@@H]5CC[C@]43C)[C@@H]2C1 | > 50 µM | 26.4 µM | < 1 | – | – | – | – | – | – | – | –
14 | COC(=O)[C@]12CCC(C)(C)C[C@H]1C1=CC(=O)[C@@H]3[C@@]4(C)CC[C@H](O[C@@H]5O[C@H](CO)[C@@H](O[C@@H]6O[C@@H](C)[C@H](O)[C@@H](O)[C@H]6O)[C@H](O)[C@H]5O[C@@H]5O[C@@H](C)[C@H](O)[C@@H](O)[C@H]5O)C(C)(C)[C@@H]4CC[C@@]3(C)[C@]1(C)CC2 | 4.1 µM | 33.8 µM | 8.3 | – | – | – | – | – | – | – | –
15 | C[C@@H]1O[C@H](O[C@H]2[C@H](O[C@H]3CC[C@]4(C)[C@H]5CC=C6[C@@H]7CC(C)(C)CC[C@]7(C(=O)OCc7ccccc7)CC[C@@]6(C)[C@]5(C)CC[C@H]4C3(C)C)O[C@H](CO)[C@@H](O[C@H]3O[C@@H](C)[C@@H](O)[C@@H](O)[C@@H]3O)[C@@H]2O)[C@@H](O)[C@H](O)[C@@H]1O | 8.65 µM | 27.4 µM | 3.2 | inactive | inactive | – | – | – | – | – | –
16 | C[C@@H]1O[C@@H](O[C@H]2[C@H](O[C@H]3CC[C@]4(C)[C@H]5CC=C6[C@@H]7CC(C)(C)CC[C@]7(C(=O)OCc7ccccc7)CC[C@@]6(C)[C@]5(C)CC[C@H]4C3(C)C)O[C@H](CO)[C@@H](O[C@@H]3O[C@@H](C)[C@H](O)[C@@H](O)[C@H]3O)[C@@H]2O)[C@H](O)[C@H](O)[C@H]1O | 4.82 µM | 23.5 µM | 4.9 | – | – | – | – | – | – | – | –
17 | CC1(C)CC[C@]2(C(=O)OCc3ccccc3)CC[C@]3(C)C(=CC[C@@H]4[C@@]5(C)CC[C@H](O[C@@H]6O[C@H](CO)[C@@H](O[C@H]7OC[C@@H](O)[C@H](O)[C@H]7O)[C@H](O)[C@H]6O[C@H]6OC[C@@H](O)[C@H](O)[C@H]6O)C(C)(C)[C@@H]5CC[C@]43C)[C@@H]2C1 | > 50 µM | 20.8 µM | < 1 | – | – | – | – | – | – | – | –
